# Laboratory results from ChEMBL document CHEMBL4765450, “The components and activities analysis of a novel anticoagulant candidate dHG-5” (Eur J Med Chem, 2020).
# pIC50: −log10 of the molar value. Active and inactive are the calls of the source. The rule behind the calls is not given here.
# How the values were obtained:
# [1] = target: Coagulation factor IX/VIII (Homo sapiens, UniProt P00451+P00740); assay: Inhibition of human citrated plasma iXase (factor 8a-factor 9a complex) preincubated for 2 mins followed by factor 10 addition and measured after 1 min by FXa chromogenic substrate SXa-11 based assay; format: protein-complex assay
# Sequence of Coagulation factor IX/VIII (P00451 20-759 limits assumed): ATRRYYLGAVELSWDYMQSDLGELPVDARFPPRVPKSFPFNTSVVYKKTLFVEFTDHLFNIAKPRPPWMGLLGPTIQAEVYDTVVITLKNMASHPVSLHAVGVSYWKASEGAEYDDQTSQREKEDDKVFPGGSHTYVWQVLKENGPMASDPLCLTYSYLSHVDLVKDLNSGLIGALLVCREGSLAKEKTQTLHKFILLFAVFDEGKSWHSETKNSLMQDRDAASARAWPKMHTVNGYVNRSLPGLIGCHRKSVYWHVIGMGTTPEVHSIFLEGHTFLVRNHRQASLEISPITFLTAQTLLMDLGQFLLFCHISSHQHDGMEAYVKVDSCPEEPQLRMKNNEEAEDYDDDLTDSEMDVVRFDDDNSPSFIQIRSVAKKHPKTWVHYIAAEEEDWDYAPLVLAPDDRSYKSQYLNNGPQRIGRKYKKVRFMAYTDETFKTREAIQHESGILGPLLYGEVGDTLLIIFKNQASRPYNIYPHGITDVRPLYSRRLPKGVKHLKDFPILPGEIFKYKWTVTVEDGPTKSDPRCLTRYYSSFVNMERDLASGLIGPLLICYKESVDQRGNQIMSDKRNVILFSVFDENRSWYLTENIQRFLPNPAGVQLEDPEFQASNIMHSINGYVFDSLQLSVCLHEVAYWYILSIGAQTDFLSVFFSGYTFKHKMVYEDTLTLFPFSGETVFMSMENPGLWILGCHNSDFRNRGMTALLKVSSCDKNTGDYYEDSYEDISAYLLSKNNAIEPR
# Sequence of Coagulation factor IX/VIII (P00451 1668-2351 limits assumed): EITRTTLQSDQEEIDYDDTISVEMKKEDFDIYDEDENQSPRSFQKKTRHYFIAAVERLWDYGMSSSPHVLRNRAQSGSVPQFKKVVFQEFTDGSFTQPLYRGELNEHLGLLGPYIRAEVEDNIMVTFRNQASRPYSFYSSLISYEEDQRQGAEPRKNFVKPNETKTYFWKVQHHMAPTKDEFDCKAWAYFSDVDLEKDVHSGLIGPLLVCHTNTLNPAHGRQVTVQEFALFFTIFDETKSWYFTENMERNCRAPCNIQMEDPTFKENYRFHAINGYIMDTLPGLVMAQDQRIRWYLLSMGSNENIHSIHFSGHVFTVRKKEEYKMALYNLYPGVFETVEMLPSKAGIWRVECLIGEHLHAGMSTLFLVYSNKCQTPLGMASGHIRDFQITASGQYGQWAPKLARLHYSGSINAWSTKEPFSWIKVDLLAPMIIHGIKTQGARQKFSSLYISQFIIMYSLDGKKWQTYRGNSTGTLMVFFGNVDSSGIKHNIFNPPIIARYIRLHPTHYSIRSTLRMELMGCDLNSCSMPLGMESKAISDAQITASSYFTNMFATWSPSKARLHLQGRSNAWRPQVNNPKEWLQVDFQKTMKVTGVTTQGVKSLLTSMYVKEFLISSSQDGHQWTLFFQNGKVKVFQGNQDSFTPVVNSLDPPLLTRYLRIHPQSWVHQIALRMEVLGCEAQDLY
# Sequence of Coagulation factor IX/VIII (P00740 47-191 limits assumed): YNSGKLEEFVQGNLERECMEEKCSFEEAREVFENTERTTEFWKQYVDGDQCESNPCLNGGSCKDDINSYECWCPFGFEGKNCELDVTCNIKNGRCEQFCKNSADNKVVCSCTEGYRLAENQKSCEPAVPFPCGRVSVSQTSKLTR
# Sequence of Coagulation factor IX/VIII (P00740 227-461 limits assumed): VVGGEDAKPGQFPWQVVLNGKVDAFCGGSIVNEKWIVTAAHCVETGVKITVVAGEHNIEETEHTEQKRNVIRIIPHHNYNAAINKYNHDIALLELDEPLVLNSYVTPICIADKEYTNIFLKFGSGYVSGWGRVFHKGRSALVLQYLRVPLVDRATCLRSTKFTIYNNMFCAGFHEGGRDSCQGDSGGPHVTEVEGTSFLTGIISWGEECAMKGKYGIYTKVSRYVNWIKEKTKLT
# Coagulation factor IX [2] = target: T1, Coagulation factor IX (Homo sapiens, UniProt P00740); assay: Inhibition of factor 9a (unknown origin) binding to immobilized biotinylated oHG-11 by biolayer interferometry
# T1 sequence (P00740 47-191 limits assumed): as the sequence (P00740 47-191 limits assumed) above
# T1 sequence (P00740 227-461 limits assumed): as the sequence (P00740 227-461 limits assumed) above
# [3] = target: Prothrombin (Homo sapiens) (UniProt P00734); assay: Inhibition of factor 2a (unknown origin) at IC50 preincubated for 1 min followed by chromogenic substrate addition and measured for 2 mins; conditions: time 3.0 min
# [4] = target: T2, Coagulation factor VII (Homo sapiens) (UniProt P08709); assay: Inhibition of factor 7a (unknown origin) at IC50 using pefachrome factor VIIa as substrate preincubated for 1 min followed by chromogenic substrate addition and measured for 2 mins; conditions: time 3.0 min
# T2 sequence (whole entry): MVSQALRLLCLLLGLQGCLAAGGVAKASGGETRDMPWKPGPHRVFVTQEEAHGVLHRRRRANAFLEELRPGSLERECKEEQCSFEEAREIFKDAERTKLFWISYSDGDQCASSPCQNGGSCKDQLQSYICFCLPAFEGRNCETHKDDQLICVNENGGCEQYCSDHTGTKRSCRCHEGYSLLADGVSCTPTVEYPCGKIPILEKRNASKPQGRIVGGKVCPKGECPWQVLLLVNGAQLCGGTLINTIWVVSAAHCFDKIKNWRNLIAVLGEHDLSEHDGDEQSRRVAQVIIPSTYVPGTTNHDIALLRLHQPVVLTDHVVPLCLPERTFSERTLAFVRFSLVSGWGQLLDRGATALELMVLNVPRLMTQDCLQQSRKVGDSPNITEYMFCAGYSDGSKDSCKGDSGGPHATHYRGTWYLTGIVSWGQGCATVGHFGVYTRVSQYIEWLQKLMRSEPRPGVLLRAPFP
# [5] = target: Coagulation factor X (Homo sapiens) (UniProt P00742); assay: Inhibition of factor 10a (unknown origin) at IC50 preincubated for 1 min followed by chromogenic substrate addition and measured for 2 mins; conditions: time 3.0 min
# Sequence of Coagulation factor X (Homo sapiens) (P00742 41-179 limits assumed): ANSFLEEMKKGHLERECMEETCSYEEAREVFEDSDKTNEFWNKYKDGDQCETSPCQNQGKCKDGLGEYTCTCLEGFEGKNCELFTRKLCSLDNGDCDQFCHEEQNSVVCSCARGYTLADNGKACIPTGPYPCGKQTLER
# Sequence of Coagulation factor X (Homo sapiens) (P00742 235-488 limits assumed): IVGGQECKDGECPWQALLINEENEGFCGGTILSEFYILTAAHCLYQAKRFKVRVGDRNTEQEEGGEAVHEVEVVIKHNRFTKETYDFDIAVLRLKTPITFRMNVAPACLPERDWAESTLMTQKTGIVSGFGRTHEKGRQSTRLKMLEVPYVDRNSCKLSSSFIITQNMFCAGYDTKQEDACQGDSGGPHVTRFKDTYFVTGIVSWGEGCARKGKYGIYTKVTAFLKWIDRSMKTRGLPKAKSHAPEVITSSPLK
# [6] = target: Coagulation factor XI (Homo sapiens) (UniProt P03951); assay: Inhibition of factor 11a (unknown origin) at IC50 using S-2366 as substrate preincubated for 1 min followed by chromogenic substrate addition and measured for 2 mins; conditions: time 3.0 min
# Sequence of Coagulation factor XI (Homo sapiens) (P03951 19-387 limits assumed): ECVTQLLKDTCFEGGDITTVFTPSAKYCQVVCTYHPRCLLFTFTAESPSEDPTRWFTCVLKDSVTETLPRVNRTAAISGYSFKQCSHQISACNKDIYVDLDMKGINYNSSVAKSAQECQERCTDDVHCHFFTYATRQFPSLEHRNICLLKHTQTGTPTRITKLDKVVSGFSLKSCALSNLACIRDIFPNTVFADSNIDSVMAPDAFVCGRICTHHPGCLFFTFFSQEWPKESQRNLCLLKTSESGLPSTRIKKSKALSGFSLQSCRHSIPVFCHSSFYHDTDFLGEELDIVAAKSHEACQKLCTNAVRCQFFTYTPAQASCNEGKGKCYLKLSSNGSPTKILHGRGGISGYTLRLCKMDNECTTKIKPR
# Sequence of Coagulation factor XI (Homo sapiens) (P03951 388-625 limits assumed): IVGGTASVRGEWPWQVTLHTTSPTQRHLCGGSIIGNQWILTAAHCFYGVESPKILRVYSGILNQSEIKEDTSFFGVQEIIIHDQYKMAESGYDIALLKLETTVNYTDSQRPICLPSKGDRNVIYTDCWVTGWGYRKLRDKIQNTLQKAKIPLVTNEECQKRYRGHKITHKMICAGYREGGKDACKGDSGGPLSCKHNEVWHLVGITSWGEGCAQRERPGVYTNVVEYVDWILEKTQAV
# [7] = target: T3, Coagulation factor XII (Homo sapiens) (UniProt P00748); assay: Inhibition of factor 12a (unknown origin) at IC50 using kallikrein chromogenic substrate preincubated for 1 min followed by chromogenic substrate addition and measured for 2 mins; conditions: time 3.0 min
# T3 sequence (whole entry): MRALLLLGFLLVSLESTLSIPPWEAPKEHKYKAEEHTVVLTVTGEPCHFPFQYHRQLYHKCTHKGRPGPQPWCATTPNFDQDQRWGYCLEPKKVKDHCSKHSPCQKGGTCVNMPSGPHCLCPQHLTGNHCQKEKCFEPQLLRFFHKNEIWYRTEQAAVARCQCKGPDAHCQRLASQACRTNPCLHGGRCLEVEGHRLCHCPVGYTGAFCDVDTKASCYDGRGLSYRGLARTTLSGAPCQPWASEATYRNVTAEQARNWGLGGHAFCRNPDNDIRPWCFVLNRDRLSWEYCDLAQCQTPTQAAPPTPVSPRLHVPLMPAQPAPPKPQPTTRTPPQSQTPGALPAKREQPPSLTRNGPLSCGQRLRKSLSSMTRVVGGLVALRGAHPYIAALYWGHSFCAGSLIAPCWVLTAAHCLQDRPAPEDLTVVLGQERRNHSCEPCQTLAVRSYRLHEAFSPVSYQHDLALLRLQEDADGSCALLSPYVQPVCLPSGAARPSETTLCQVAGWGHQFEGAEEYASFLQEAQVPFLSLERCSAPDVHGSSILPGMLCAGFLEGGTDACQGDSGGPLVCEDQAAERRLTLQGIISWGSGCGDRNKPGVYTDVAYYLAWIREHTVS
# [8] = target: Prothrombin (Homo sapiens) (UniProt P00734); assay: Inhibition of factor 2a (unknown origin) at IC50 preincubated for 1 min followed by chromogenic substrate addition and measured for 2 mins in presence of AT-III; conditions: time 3.0 min
# [9] = target: T2, Coagulation factor VII (Homo sapiens); assay: Inhibition of factor 7a (unknown origin) at IC50 using pefachrome factor VIIa as substrate preincubated for 1 min followed by chromogenic substrate addition and measured for 2 mins in presence of AT-III; conditions: time 3.0 min
# [10] = target: Coagulation factor X (Homo sapiens) (UniProt P00742); assay: Inhibition of factor 10a (unknown origin) at IC50 preincubated for 1 min followed by chromogenic substrate addition and measured for 2 mins in presence of AT-III; conditions: time 3.0 min
# [11] = target: Coagulation factor XI (Homo sapiens) (UniProt P03951); assay: Inhibition of factor 11a (unknown origin) at IC50 using S-2366 as substrate preincubated for 1 min followed by chromogenic substrate addition and measured for 2 mins in presence of AT-III; conditions: time 3.0 min
# [12] = target: T3, Coagulation factor XII (Homo sapiens); assay: Inhibition of factor 12a (unknown origin) at IC50 using kallikrein chromogenic substrate preincubated for 1 min followed by chromogenic substrate addition and measured for 2 mins in presence of AT-III; conditions: time 3.0 min
# [13] = target: Prothrombin (Homo sapiens) (UniProt P00734); assay: Inhibition of factor 2a (unknown origin) at IC90 preincubated for 1 min followed by chromogenic substrate addition and measured for 2 mins in presence of AT-III; conditions: time 3.0 min
# [14] = target: Coagulation factor XI (Homo sapiens) (UniProt P03951); assay: Inhibition of factor 11a (unknown origin) at IC90 using S-2366 as substrate preincubated for 1 min followed by chromogenic substrate addition and measured for 2 mins in presence of AT-III; conditions: time 3.0 min
# [15] = target: Coagulation factor X (Homo sapiens) (UniProt P00742); assay: Inhibition of factor 10a (unknown origin) at IC90 preincubated for 1 min followed by chromogenic substrate addition and measured for 2 mins in presence of AT-III relative to control; conditions: time 3.0 min
# Plasma [16] = assay: Anticoagulation activity in AT-III-deficient human plasma preincubated for 2 mins followed by APTT reagent and measured after 3 mins by coagulometric method; format: functional, cell-free; conditions: time 5.0 min
# Plasma [17] = assay: Anticoagulation activity in HCII-deficient human plasma preincubated for 2 mins followed by APTT reagent and measured after 3 mins by coagulometric method; format: functional, cell-free; conditions: time 5.0 min
# Rattus norvegicus [18] = assay: Antithrombotic activity in thromboplastin and stasis-induced Sprague-Dawley rat deep venous thrombosis model assessed as reduction in venous thrombosis at 2.36 mg/kg, sc administered 1 hr prior to thromboplastin addition for 20 secs followed by establishment of stasis for 20 mins; format: functional; design: scale not given: the % may be the effect or the level left; conditions: time 80.33 min, 1.339 h
# Plasma [19] = assay: (§1) Anticoagulation activity in human plasma assessed as drug level causing 20 times doubling of APTT preincubated for 2 mins followed by APTT reagent and measured after 3 mins by coagulometric method relative to dHG-5; format: functional; conditions: time 5 min
# [20] = target: T4, Coagulation factor IX/VIII (Homo sapiens) (UniProt P00740+P00451); assay: (§2) Inhibition of human citrated plasma iXase (factor 8a-factor 9a complex) preincubated for 2 mins followed by factor 10 addition and measured after 1 min by FXa chromogenic substrate SXa-11 based assay relative to dHG-5; format: protein-complex assay; conditions: time 3.0 min
# Coagulation factor IX [21] = target: T1, Coagulation factor IX; assay: Inhibition of factor 9a (unknown origin) binding to immobilized biotinylated oHG-11 by biolayer interferometry relative to dHG-5
# Rattus norvegicus [22] = assay: (§3) Antithrombotic activity in thromboplastin and stasis-induced Sprague-Dawley rat deep venous thrombosis model assessed as reduction in venous thrombosis at 2.36 mg/kg, sc administered 1 hr prior to thromboplastin addition for 20 secs followed by establishment of stasis for 20 mins relative to dHG-5; format: functional; conditions: time 80.33 min, 1.339 h
# Plasma [23] = assay: as §1, with “of APTT by measuring activity potency of oligosaccharides multiplied by the percentage of oligosaccharides in dHG-5 preincubated for” for “of APTT preincubated for”; format: functional; conditions: time 5 min
# [24] = target: T4, Coagulation factor IX/VIII (Homo sapiens); assay: as §2, with “complex) assessed as activity potency of oligosaccharides multiplied by the percentage of oligosaccharides in dHG-5” for “complex)”; format: protein-complex assay; conditions: time 3.0 min
# Coagulation factor IX [25] = target: T1, Coagulation factor IX; assay: Inhibition of factor 9a (unknown origin) binding to immobilized biotinylated oHG-11 assessed as activity potency of oligosaccharides multiplied by the percentage of oligosaccharides in dHG-5 by biolayer interferometry relative to dHG-5
# Rattus norvegicus [26] = assay: as §3, with “venous thrombosis by measuring activity potency of oligosaccharides multiplied by the percentage of oligosaccharides in dHG-5 at 2.36” for “venous thrombosis at 2.36”; format: functional; conditions: time 80.33 min, 1.339 h
smiles,measurement,setting,value
CC(=O)N[C@H]1[C@H](O[C@@H]([C@H](O[C@@H]2O[C@@H](C)[C@@H](OS(=O)(=O)[O-])[C@@H](OS(=O)(=O)O)[C@@H]2O)[C@@H](O)CO)[C@H](O)C(=O)[O-])O[C@H](COS(=O)(=O)[O-])[C@H](OS(=O)(=O)[O-])[C@@H]1O[C@@H]1O[C@H](C(=O)[O-])[C@@H](O[C@@H]2O[C@H](COS(=O)(=O)[O-])[C@H](OS(=O)(=O)[O-])[C@H](O[C@@H]3O[C@H](C(=O)[O-])[C@@H](O[C@@H]4O[C@H](COS(=O)(=O)[O-])[C@H](OS(=O)(=O)[O-])[C@H](O[C@@H]5O[C@H](C(=O)[O-])[C@@H](O[C@@H]6O[C@H](COS(=O)(=O)[O-])[C@H](OS(=O)(=O)[O-])[C@H](O[C@@H]7O[C@H](C(=O)[O-])[C@@H](O[C@@H]8O[C@H](COS(=O)(=O)[O-])[C@H](OS(=O)(=O)[O-])[C@H](O[C@@H]9OC(C(=O)[O-])=C[C@H](O[C@@H]%10O[C@@H](C)[C@@H](OS(=O)(=O)[O-])[C@@H](OS(=O)(=O)O)[C@@H]%10O)[C@H]9O)[C@H]8NC(C)=O)[C@H](O[C@@H]8O[C@@H](C)[C@@H](OS(=O)(=O)[O-])[C@@H](OS(=O)(=O)O)[C@@H]8O)[C@H]7O)[C@H]6NC(C)=O)[C@H](O[C@@H]6O[C@@H](C)[C@@H](OS(=O)(=O)[O-])[C@@H](OS(=O)(=O)O)[C@@H]6O)[C@H]5O)[C@H]4NC(C)=O)[C@H](O[C@@H]4O[C@@H](C)[C@@H](OS(=O)(=O)[O-])[C@@H](OS(=O)(=O)O)[C@@H]4O)[C@H]3O)[C@H]2NC(C)=O)[C@H](O[C@@H]2O[C@@H](C)[C@@H](OS(=O)(=O)[O-])[C@@H](OS(=O)(=O)O)[C@@H]2O)[C@H]1O.[Na+].[Na+].[Na+].[Na+].[Na+].[Na+].[Na+].[Na+].[Na+].[Na+].[Na+].[Na+].[Na+].[Na+].[Na+].[Na+].[Na+].[Na+].[Na+].[Na+].[Na+].[Na+],pIC50,[1],7.76
same,pIC50,Coagulation factor IX [2],6.38
same,inhibition,[3],inactive
same,inhibition (active/not active),[4],inactive
same,inhibition,[5],inactive
same,inhibition,[6],inactive
same,inhibition,[7],inactive
same,inhibition,[8],inactive
same,inhibition,[9],inactive
same,inhibition,[10],inactive
same,inhibition,[11],inactive
same,inhibition,[12],inactive
same,inhibition,[13],Active
same,inhibition,[14],Active
same,inhibition,[15],inactive
same,Activity,Plasma [16],Active
same,Activity,Plasma [17],Active
same,Activity,Rattus norvegicus [18],58.4%
same,Ratio,Plasma [19],104.07 U
same,Ratio,[20],81.6 U
same,Ratio,Coagulation factor IX [21],103 U
same,Ratio,Rattus norvegicus [22],123.01 U
same,Ratio,Plasma [23],14.17 U
same,Ratio,[24],11.1 U
same,Ratio,Coagulation factor IX [25],14.1 U
same,Ratio,Rattus norvegicus [26],16.73 U
